From patent US20120156307A1, “MEDICAL USES OF NANOCLUSTERED WATER” (priority 2010, published 2012)
Read-outs that look alike come from different tables or passages of the source.

What was measured:
[1] = system: in vitro reconstituted human 3D skin with a corneum layer; experiment: Keratolytic effect, MTT assay on reconstituted human 3D skin; type: cell-based
Procedure: The assay was carried out on a three-dimensional reconstituted human skin model, composed of human epidermal keratinocytes that have been proliferating and differentiating in vitro in peculiar conditions in order to build up a well-differentiated stratum corneum. […] When the damage of the corneum layer is stronger, as it happens with keratolytic agents, the cytotoxic effects of the germinative layer are faster to develop. […] Thirty μL of each substance have been applied to the cell culture and incubation at 37° C. was performed for 15 and 120 minutes respectively.

[2] = system: in vitro reconstituted human 3D skin with a corneum layer; conditions: 1% SLS, 10% Glycolic acid, cited from earlier work
[3] = system: peripheral blood mononuclear cells (PBMC); experiment: In vitro inhibition of PBMC proliferation; type: cell-based

Row | SMILES | cell death (cytotoxic effect) ([1]; after 2 hours, 1% SLS) [%] | cell death, as generally stated for the reference agents ([2]; after 15') | cell death, as generally stated for the reference agents ([2]; after 2 h) | inhibition at 0.01 µM ([3]; Batch 1, 10 nM) [%] | inhibition at 0.01 µM ([3]; Batch 2, 10 nM) [%] | inhibition at 0.01 µM ([3]; Batch 3, 10 nM) [%] | inhibition at 0.01 µM ([3]; Batch 4, 10 nM) [%] | inhibition at 0.01 µM ([3]; Mean, 10 nM) [%] | cell death ([1]; at 15', 10% glycolic acid) [%]
1 | CCCCCCCCCCCCOS(=O)(=O)[O-].[Na+] [SLS] | 27.69 | does not cause any cell death | about 30% |  |  |  |  |  | 
2 | C[C@H]1C[C@H]2[C@@H]3CCC4=CC(=O)C=C[C@]4(C)[C@@]3(F)[C@@H](O)C[C@]2(C)[C@@]1(O)C(=O)CO [Betamethasone, betamethasone] |  |  |  | 87.7 | 85.7 | 79.4 | 88.5 | 85.3 | 
3 | O=C(O)CO [glycolic acid] |  | 50% | 90% |  |  |  |  |  | 45.86
